Source: patent publication US12522614B2, “Topical phosphoinositide 3-kinase inhibitors” (VENTHERA, INC., priority 2019, dated 2026)

Tests used:
[1] = In vitro human skin permeation study of topical gel formulations (Franz diffusion cells); type: in vitro ADME
[2] = Accelerated stability study of topical gel formulations at 80° C.; type: physicochemical; conditions: gel formulation (Table 2 excipients), 80° C.
Experimental: Topical gel formulations were prepared using excipients as shown in Table 2 according to Example 8, in which Compounds 1.002, 1.012, and 1.006 were used as the active ingredient, respectively. These gel formulations were subjected to stability study at 80° C. for 10 days. Stability under the condition of at 80° C. for 10 days is expected to be approximately equivalent to the stability for three (3) years at room temperature. A relative purity of the tested compound after being exposed for 5 days and 10 days at 80° C. was determined by HPLC, as compared to its initial purity (at day 0).
The values shown in the table are percent hydrolysis of the respective compounds to the parent compound MTPP.
Topical gel formulations of Compound 1.002 were prepared using excipients as shown in Table 2 according to Example 8, in which the content of oleic acid varied at 1%, 2%, 5%, and 10%, respectively. These gel formulations were subjected to stability study at 80° C. for 10 days, which is expected to be approximately equivalent to the stability for three (3) years at room temperature. A purity of the tested compound on day 0, 5, 7, and 10 at 80° C. was determined by HPLC. The detected impurity of the tested compound appears to be the hydrolysis product, as MTPP. Table 17 represents stability data of Compound 1.002 in topical formulations having oleic acid at various contents.
Gel formulations of Example 17 were subjected to stability study at 80° C. for 10 days. Stability under the condition of at 80° C. for 10 days is expected to be approximately equivalent to the stability for three (3) years at room temperature. A relative purity of Compound 1.002 after being exposed for 5 days and 10 days at 80° C. was determined by HPLC, as compared to its initial purity (at day 0).

PI3K (p110a(E542K)/p85a) = biological target: T1, PI3K (p110a(E542K)/p85a) (Homo sapiens, UniProt P42336, E542K); assay: Lipid kinase inhibitory activity, ADP-Glo; type: biochemical; conditions: α E542K
T1 construct: purchased Reaction Biology Corporation (RBC)
T1 sequence (P42336 whole entry E542K): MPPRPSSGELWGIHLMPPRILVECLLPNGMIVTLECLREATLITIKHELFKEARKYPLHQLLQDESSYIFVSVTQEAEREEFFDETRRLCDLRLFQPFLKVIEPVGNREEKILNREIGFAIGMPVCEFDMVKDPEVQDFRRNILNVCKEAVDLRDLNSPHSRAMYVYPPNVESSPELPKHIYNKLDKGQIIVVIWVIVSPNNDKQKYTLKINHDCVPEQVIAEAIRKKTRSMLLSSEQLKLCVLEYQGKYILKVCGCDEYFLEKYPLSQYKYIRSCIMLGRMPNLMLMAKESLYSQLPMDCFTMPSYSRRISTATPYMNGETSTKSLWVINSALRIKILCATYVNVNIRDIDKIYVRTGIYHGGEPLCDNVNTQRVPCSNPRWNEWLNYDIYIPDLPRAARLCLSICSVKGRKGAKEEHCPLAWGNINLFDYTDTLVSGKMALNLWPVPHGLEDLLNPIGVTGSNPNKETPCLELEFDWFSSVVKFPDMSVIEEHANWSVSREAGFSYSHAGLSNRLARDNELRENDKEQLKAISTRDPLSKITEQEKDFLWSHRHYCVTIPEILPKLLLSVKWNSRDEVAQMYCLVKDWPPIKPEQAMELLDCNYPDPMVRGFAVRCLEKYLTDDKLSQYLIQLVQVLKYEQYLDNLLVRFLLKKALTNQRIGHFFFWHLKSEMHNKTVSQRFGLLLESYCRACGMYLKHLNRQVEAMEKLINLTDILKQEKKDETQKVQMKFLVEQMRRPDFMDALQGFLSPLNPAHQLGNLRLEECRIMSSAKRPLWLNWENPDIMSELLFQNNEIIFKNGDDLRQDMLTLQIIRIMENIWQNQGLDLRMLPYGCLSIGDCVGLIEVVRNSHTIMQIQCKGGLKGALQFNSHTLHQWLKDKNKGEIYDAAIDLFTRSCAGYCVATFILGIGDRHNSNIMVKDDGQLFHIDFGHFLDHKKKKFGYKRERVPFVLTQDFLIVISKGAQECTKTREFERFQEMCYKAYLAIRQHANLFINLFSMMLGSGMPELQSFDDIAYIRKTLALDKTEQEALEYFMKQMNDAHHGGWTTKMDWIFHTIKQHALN
T1 sequence (P27986 whole entry partner): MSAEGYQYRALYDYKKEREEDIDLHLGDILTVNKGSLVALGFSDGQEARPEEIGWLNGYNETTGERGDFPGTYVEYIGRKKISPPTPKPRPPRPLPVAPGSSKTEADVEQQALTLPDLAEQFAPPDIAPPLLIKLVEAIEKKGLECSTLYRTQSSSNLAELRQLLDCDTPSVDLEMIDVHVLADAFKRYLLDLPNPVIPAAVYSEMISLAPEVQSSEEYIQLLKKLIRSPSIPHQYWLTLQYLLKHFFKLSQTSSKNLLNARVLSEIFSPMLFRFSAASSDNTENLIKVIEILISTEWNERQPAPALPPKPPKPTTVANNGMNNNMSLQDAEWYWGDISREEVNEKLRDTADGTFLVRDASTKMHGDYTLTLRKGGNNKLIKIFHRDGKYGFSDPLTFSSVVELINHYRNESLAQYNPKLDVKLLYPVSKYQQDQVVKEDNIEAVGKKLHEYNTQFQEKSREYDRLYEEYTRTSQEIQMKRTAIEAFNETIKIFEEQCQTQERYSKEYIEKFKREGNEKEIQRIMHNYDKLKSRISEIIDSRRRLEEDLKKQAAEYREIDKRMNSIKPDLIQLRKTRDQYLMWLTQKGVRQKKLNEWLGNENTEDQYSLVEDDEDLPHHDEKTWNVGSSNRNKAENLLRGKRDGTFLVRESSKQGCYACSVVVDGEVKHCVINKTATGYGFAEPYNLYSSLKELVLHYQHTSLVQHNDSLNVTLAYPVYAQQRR
Experimental: (§1) Lipid kinases: Lipid kinases from Reaction Biology Corporation (RBC) in ADP-Glo format were used.
(§2) Assay Description: The kinase reactions utilized ATP and produced ADP as a byproduct. The ADP production was quantified by ADP-Glo luminescence detection. This assay was a 3-step reaction. First, the kinase reaction with lipid substrate was carried out in the presence of ATP, and the reaction was quenched and depleted remaining ATP with ADP-Glo™ reagent, and then finally ADP was converted to ATP which was measured using a luciferase/luciferin reaction.
(§3) Assay Procedure: The assay was performed according to the steps as follows: • 1. Preparing substrate in freshly prepared reaction buffer; • 2. Delivering kinase into the substrate solution and gently mixing; • 3. Delivering compounds in […] into the kinase reaction mixture by Acoustic technology (Echo550; nanoliter range), incubating for 20 minutes at room temperature; • 4. Delivering ATP into the reaction mixture to initiate the reaction; • 5. Incubating for 30 minutes at 30° C.; • 6. Quenching the reaction with ADP-Glo reagent and incubating for 40 minutes; • 7. Adding Detection Mixture and incubating for 30 minutes; and • 8. Measuring luminescence.
(§4) Data Analysis: The luminescence was converted into μM ADP production based on ADP standard curves. The nonlinear regression to obtain the standard curve and IC50 values were performed using Graphpad Prism software.

PI3K (p110a(E545K)/p85a) = biological target: T2, PI3K (p110a(E545K)/p85a) (Homo sapiens, UniProt P42336, E545K); assay: Lipid kinase inhibitory activity, ADP-Glo; type: biochemical; conditions: α E545K
T2 construct: purchased Reaction Biology Corporation (RBC)
T2 sequence (P42336 whole entry E545K): as the sequence (P42336 whole entry E542K) above, with K542E, E545K counted along it
T2 sequence (P27986 whole entry partner): as the sequence (P27986 whole entry partner) above
Experimental: as §1, §2, §3, §4

PI3Kg (p110g) = biological target: T3, PI3Kg (p110g) (Homo sapiens, UniProt P48736); assay: Lipid kinase inhibitory activity, ADP-Glo; type: biochemical; conditions: γ
T3 construct: purchased Reaction Biology Corporation (RBC)
Experimental: as §1, §2, §3, §4

PI3Kd (p110d/p85a) = biological target: T4, PI3Kd (p110d/p85a) (Homo sapiens, UniProt O00329); assay: Lipid kinase inhibitory activity, ADP-Glo; type: biochemical; conditions: δ
T4 construct: purchased Reaction Biology Corporation (RBC)
T4 sequence (O00329 whole entry): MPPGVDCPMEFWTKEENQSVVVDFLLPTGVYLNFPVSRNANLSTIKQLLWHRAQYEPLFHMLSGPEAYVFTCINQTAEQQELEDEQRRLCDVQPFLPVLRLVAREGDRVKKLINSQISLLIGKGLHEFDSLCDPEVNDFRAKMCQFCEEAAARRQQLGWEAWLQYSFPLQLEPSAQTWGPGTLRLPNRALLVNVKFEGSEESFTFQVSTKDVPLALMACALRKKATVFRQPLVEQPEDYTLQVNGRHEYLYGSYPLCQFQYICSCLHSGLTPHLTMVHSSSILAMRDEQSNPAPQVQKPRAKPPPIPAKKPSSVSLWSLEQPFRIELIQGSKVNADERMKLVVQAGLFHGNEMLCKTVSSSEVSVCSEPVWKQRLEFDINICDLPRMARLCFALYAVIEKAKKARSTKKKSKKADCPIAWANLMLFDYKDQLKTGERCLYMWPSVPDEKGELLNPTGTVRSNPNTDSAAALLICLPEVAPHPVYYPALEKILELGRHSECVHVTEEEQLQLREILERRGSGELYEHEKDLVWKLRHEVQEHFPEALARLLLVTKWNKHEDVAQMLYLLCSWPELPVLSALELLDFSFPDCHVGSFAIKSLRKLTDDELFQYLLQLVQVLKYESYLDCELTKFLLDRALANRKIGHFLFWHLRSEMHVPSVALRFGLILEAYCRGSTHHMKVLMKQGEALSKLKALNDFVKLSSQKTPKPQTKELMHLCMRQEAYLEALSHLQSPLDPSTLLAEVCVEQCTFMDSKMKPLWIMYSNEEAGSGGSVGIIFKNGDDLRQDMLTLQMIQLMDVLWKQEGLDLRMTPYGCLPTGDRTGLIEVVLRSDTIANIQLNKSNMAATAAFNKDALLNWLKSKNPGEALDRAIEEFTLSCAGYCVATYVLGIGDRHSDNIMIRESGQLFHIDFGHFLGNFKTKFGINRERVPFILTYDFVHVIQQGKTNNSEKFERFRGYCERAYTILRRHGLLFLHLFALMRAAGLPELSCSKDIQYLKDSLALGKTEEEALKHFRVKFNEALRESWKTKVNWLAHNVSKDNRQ
T4 sequence (P27986 whole entry partner): as the sequence (P27986 whole entry partner) above
Experimental: as §1, §2, §3, §4

PI3Ka (p110a/p85a) = biological target: T5, PI3Ka (p110a/p85a) (Homo sapiens, UniProt P42336); assay: Lipid kinase inhibitory activity, ADP-Glo; type: biochemical; conditions: α
T5 construct: purchased Reaction Biology Corporation (RBC)
T5 sequence (P42336 whole entry): as the sequence (P42336 whole entry E542K) above, with K542E counted along it
T5 sequence (P27986 whole entry partner): as the sequence (P27986 whole entry partner) above
Experimental: as §1, §2, §3, §4

MTOR/FRAP1 = biological target: T6, MTOR/FRAP1 (Homo sapiens, UniProt P42345); assay: Lipid kinase inhibitory activity, ADP-Glo; type: biochemical
T6 construct: purchased Reaction Biology Corporation (RBC)
Experimental: as §1, §2, §3, §4

[3] = biological target: T7, PI3K (p110a(H1047R)/p85a) (Homo sapiens, UniProt P42336, H1047R); assay: Lipid kinase inhibitory activity, ADP-Glo; type: biochemical; conditions: α H1047R
T7 construct: purchased Reaction Biology Corporation (RBC)
T7 sequence (P42336 whole entry H1047R): as the sequence (P42336 whole entry E542K) above, with K542E, H1047R counted along it
T7 sequence (P27986 whole entry partner): as the sequence (P27986 whole entry partner) above
Experimental: as §1, §2, §3, §4

PI3Kb (p110b/p85a) = biological target: T8, PI3Kb (p110b/p85a) (Homo sapiens, UniProt P42338); assay: Lipid kinase inhibitory activity, ADP-Glo; type: biochemical; conditions: β
T8 construct: purchased Reaction Biology Corporation (RBC)
T8 sequence (P42338 whole entry): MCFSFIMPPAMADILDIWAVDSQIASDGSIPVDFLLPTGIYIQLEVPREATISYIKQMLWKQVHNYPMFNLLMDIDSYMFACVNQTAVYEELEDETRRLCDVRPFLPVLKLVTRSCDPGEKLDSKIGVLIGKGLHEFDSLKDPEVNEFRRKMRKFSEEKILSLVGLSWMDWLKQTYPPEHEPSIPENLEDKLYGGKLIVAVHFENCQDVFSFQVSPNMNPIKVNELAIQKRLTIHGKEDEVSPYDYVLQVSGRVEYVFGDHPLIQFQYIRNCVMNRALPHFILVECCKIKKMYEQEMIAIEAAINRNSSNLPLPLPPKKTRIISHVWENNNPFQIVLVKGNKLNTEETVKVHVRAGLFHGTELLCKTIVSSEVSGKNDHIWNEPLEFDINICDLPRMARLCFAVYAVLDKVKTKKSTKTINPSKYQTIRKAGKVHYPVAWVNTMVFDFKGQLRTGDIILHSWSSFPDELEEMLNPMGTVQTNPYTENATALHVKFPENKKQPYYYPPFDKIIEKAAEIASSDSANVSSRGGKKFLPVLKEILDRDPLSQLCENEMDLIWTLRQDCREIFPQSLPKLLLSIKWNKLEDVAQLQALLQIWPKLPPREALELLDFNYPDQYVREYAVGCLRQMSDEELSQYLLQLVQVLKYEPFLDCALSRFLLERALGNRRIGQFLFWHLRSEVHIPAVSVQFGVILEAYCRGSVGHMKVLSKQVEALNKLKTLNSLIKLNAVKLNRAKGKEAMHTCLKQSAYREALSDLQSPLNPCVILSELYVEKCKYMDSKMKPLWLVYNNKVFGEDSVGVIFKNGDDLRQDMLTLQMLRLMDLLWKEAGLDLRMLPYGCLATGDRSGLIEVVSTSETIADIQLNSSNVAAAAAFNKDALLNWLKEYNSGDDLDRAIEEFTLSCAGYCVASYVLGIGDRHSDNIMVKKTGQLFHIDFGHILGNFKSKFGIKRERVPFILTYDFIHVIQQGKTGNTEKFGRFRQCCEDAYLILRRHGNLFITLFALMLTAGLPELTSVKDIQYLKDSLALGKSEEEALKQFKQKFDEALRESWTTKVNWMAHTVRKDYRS
T8 sequence (P27986 whole entry partner): as the sequence (P27986 whole entry partner) above
Experimental: as §1, §2, §3, §4

[4] = Study-1, Example 8 gel, human skin, Donor 1, 2 h
[5] = Study-1, Example 8 gel, human skin, Donor 1, 4 h
[6] = Study-1, Example 8 gel, human skin, Donor 1, 8 h
[7] = Study-1, Example 8 gel, human skin, Donor 1, 24 h
[8] = Study-1, Example 8 gel, human skin, Donor 1, 48 h
[9] = Study-1, Example 8 gel, human skin, Donor 2, 2 h
[10] = Study-1, Example 8 gel, human skin, Donor 2, 8 h
[11] = Study-1, Example 8 gel, human skin, Donor 2, 24 h
[12] = Study-1, Example 8 gel, human skin, Donor 2, 48 h
[13] = Study-1, Example 8 gel, human skin, Donor 3, 4 h
[14] = Study-1, Example 8 gel, human skin, Donor 3, 8 h
[15] = Study-1, Example 8 gel, human skin, Donor 3, 24 h
[16] = Study-1, Example 8 gel, human skin, Donor 3, 48 h
[17] = Study-2, gel saturated at 120 mg/mL, human skin, 2 h
[18] = Study-2, gel saturated at 120 mg/mL, human skin, 4 h
[19] = Study-2, gel saturated at 120 mg/mL, human skin, 8 h
[20] = Study-2, gel saturated at 120 mg/mL, human skin, 24 h
[21] = Study-2, gel saturated at 120 mg/mL, human skin, 48 h

Share of total permeated (MTPP+Compound 1.002) that was Compound 1.002 ([1]; Example 16, three formulations, 24 hour time point): about 10%
Cumulative permeation, Cmpd. 1.002 [1, 4]: 0.00 μg/cm^2
Hydrolysis of Cmpd. 1.002 to MTPP [1, 4]: 100%
Cumulative permeation, Cmpd. 1.002 [1, 5]: 0.00 μg/cm^2
Hydrolysis of Cmpd. 1.002 to MTPP [1, 5]: 100%
Cumulative permeation, Cmpd. 1.002 [1, 6]: 0.00 μg/cm^2
Hydrolysis of Cmpd. 1.002 to MTPP [1, 6]: 100%
Cumulative permeation, Cmpd. 1.002 [1, 7]: 13.47 μg/cm^2
Hydrolysis of Cmpd. 1.002 to MTPP [1, 7]: 82.9%
Cumulative permeation, Cmpd. 1.002 [1, 8]: 85.01 μg/cm^2
Hydrolysis of Cmpd. 1.002 to MTPP [1, 8]: 58.5%
Cumulative permeation, Cmpd. 1.002 [1, 9]: 0.00 μg/cm^2
Hydrolysis of Cmpd. 1.002 to MTPP [1, 9]: 100%
Cumulative permeation, Cmpd. 1.002 ([1]; Study-1, Example 8 gel, human skin, Donor 2, 4 h): 0.00 μg/cm^2
Cumulative permeation, Cmpd. 1.002 [1, 10]: 1.09 μg/cm^2
Hydrolysis of Cmpd. 1.002 to MTPP [1, 10]: 87.0%
Cumulative permeation, Cmpd. 1.002 [1, 11]: 15.44 μg/cm^2
Hydrolysis of Cmpd. 1.002 to MTPP [1, 11]: 83.6%
Cumulative permeation, Cmpd. 1.002 [1, 12]: 82.83 μg/cm^2
Hydrolysis of Cmpd. 1.002 to MTPP [1, 12]: 59.6%
Cumulative permeation, Cmpd. 1.002 [1, 13]: 0.00 μg/cm^2
Hydrolysis of Cmpd. 1.002 to MTPP [1, 13]: 100%
Cumulative permeation, Cmpd. 1.002 [1, 14]: 0.00 μg/cm^2
Hydrolysis of Cmpd. 1.002 to MTPP [1, 14]: 100%
Cumulative permeation, Cmpd. 1.002 [1, 15]: 5.18 μg/cm^2
Hydrolysis of Cmpd. 1.002 to MTPP [1, 15]: 92.0%
Cumulative permeation, Cmpd. 1.002 [1, 16]: 70.87 μg/cm^2
Hydrolysis of Cmpd. 1.002 to MTPP [1, 16]: 65.5%
Amount of permeated Compound 1.002 metabolized to MTPP ([1]; Study-1 and Study-2, human skin, first 24-hour period): 82%-100%
Cumulative permeation, Cmpd. 1.002 [1, 17]: 0.00 μg/cm^2
Hydrolysis of Cmpd. 1.002 to MTPP [1, 17]: 100%
Cumulative permeation, Cmpd. 1.002 [1, 18]: 0.00 μg/cm^2
Hydrolysis of Cmpd. 1.002 to MTPP [1, 18]: 100%
Cumulative permeation, Cmpd. 1.002 [1, 19]: 0.00 μg/cm^2
Hydrolysis of Cmpd. 1.002 to MTPP [1, 19]: 100%
Cumulative permeation, Cmpd. 1.002 [1, 20]: 0.00 μg/cm^2
Hydrolysis of Cmpd. 1.002 to MTPP [1, 20]: 100%
Cumulative permeation, Cmpd. 1.002 [1, 21]: 78.10 μg/cm^2
Hydrolysis of Cmpd. 1.002 to MTPP [1, 21]: 83.9%
Permeation through human skin relative to MTPP ([1]; Study-3, saturated gel formulations, 48 hour period, FIG. 4): about 6 times
Relative Purity ([2]; Day 0): 100%
Relative Purity ([2]; Day 5): 96%
Relative Purity ([2]; Day 10): 94%
IC50 (PI3K (p110a(E542K)/p85a)): 42 nM
IC50 (PI3K (p110a(E545K)/p85a)): 49 nM
IC50 (PI3Kg (p110g)): 544 nM
IC50 (PI3Kd (p110d/p85a)): 83 nM
IC50 (PI3Ka (p110a/p85a)): 35 nM
IC50 (MTOR/FRAP1): 1410 nM
IC50 [3]: 59 nM
IC50 (PI3Kb (p110b/p85a)): 257 nM
SMILES: CC(=O)Oc1cccc(-c2nc(N3CCOCC3)c3sccc3n2)c1 [Compound 1.002, 3-(4-Morpholinothieno[3,2-d]pyrimidin-2-yl)phenyl Acetate]
Effect of oleic acid amount on flux through human skin ([1]; Example 15, gels with 1%, 2%, 5% and 10% oleic acid, FIG. 13): increases as the increase of the amount of oleic acid
Metabolism of Compound 1.002 to MTPP ([1]; Example 15, gels with 1%, 2%, 5% and 10% oleic acid, human skin): Majority of Compound 1.002 metabolized to MTPP
